Common to all, as to type: functional
The test system of one experiment is Enterococcus faecalis. Kind of experiment: Antimicrobial activity against Streptococcus faecalis.
For another experiment, the system named is Staphylococcus aureus. Kind of experiment: Antimicrobial activity against Staphylococcus aureus.
The next experiment deals with Bacillus subtilis. Kind of experiment: Antimicrobial activity against Bacillus subtilis.
A further experiment concerns Bacillus cereus. Description: Antimicrobial activity against Bacillus cereus.
The test system of the next experiment is Micrococcus luteus. Description: Antimicrobial activity against Sarcina lutea.
In another experiment the test system is Wickerhamomyces anomalus. Description: Antimicrobial activity against Hansenula anomala.
For another experiment, the system named is Aspergillus niger. Kind of experiment: Antimicrobial activity against Aspergillus niger.

As for `C=C(C)C(=O)Oc1c(Cl)cc(Cl)cc1Cl`, the “log(1/C)” value in the experiment with Enterococcus faecalis turned out to be 3.76; with Staphylococcus aureus, 3.76; in the experiment on Bacillus subtilis it was 3.76; in the experiment on Bacillus cereus, 3.76; in the experiment with Micrococcus luteus, 3.24; with Wickerhamomyces anomalus it was 3.46.

In the case of `C=C(C)C(=O)Oc1ccccc1`, the “log(1/C)” value with Enterococcus faecalis, in the experiment on Staphylococcus aureus, in the experiment with Bacillus subtilis, in the experiment on Bacillus cereus, in the experiment with Micrococcus luteus and with Wickerhamomyces anomalus was 2.89 throughout.

Take `C=C(C)C(=O)Oc1ccc(Cl)cc1Cl`: the “log(1/C)” value was determined as 3.49 with Enterococcus faecalis; 3.49 with Staphylococcus aureus; 3.8 with Bacillus subtilis; 3.49 with Bacillus cereus; 3.49 in the experiment with Micrococcus luteus; 3.49 in the experiment on Wickerhamomyces anomalus.

Turning to `C=C(C)C(=O)Oc1ccc(Cl)cc1`, the “log(1/C)” value in the experiment on Enterococcus faecalis stood at 3.25; in the experiment with Staphylococcus aureus it was 3.12; with Bacillus subtilis it was 3.25; with Bacillus cereus it was 3.25; in the experiment with Micrococcus luteus, 3.25; in the experiment with Wickerhamomyces anomalus it was 3.25.

For `C=C(C)C(=O)Oc1ccccc1Cl`, the “log(1/C)” value in the experiment on Enterococcus faecalis came to 3.08; with Staphylococcus aureus it was 3.08; in the experiment on Bacillus subtilis it was 3.08; in the experiment on Bacillus cereus, 3.08; with Micrococcus luteus, 3.08; in the experiment on Wickerhamomyces anomalus, 3.28.

For `C=C(C)C(=O)Oc1c(Br)c(Br)c(Br)c(Br)c1Br`, the “log(1/C)” value turned out to be 3.64 with Enterococcus faecalis; 5.32 in the experiment on Staphylococcus aureus; 5.32 in the experiment with Bacillus subtilis; 3.85 in the experiment on Bacillus cereus; 3.64 with Micrococcus luteus; 3.35 with Wickerhamomyces anomalus.

For the compound `C=C(C)C(=O)Oc1cc(Cl)c(Cl)cc1Cl`, the “log(1/C)” value in the experiment with Enterococcus faecalis was determined as 3.84; in the experiment with Staphylococcus aureus it was 3.84; in the experiment on Bacillus subtilis, 3.84; in the experiment on Bacillus cereus, 3.84; in the experiment on Micrococcus luteus it was 3.54; with Wickerhamomyces anomalus it was 3.54.

As to `C=C(C)C(=O)Oc1cccc(Cl)c1`, the “log(1/C)” value with Enterococcus faecalis was determined as 2.77; with Staphylococcus aureus, 2.91; with Bacillus subtilis, 2.91; in the experiment on Bacillus cereus it was 2.91; with Micrococcus luteus it was 3.12; in the experiment on Wickerhamomyces anomalus it was 3.12.

In the case of `C=C(C)C(=O)Oc1c(Cl)c(Cl)c(Cl)c(Cl)c1Cl`, the “log(1/C)” value amounted to 4.71 in the experiment with Enterococcus faecalis; 5.19 with Staphylococcus aureus; 5 in the experiment on Bacillus subtilis; 5 in the experiment with Bacillus cereus; 3.71 in the experiment with Micrococcus luteus; 3.35 with Wickerhamomyces anomalus.

For the compound `Cc1cccc(O)c1` [METACRESOL], the “log(1/C)” value in the experiment on Aspergillus niger was found to be 2.68.

With `C=C(C)C(=O)Oc1c(Cl)cc(Cl)c(Cl)c1Cl`, the “log(1/C)” value was found to be 3.97 with Enterococcus faecalis; 4.97 with Staphylococcus aureus; 4.67 with Bacillus subtilis; 4.45 in the experiment with Bacillus cereus; 3.32 in the experiment on Micrococcus luteus; 3.45 in the experiment on Wickerhamomyces anomalus.

Consider `Cc1ccc(C(C)(C)C)c(O)c1`, for which the “log(1/C)” value in the experiment with Aspergillus niger is 3.7.

As to `CC(C)c1cc(Cl)ccc1O`, the “log(1/C)” value in the experiment on Aspergillus niger was determined as 4.3.

Source of the values: ChEMBL document CHEMBL3272085, “Quantitative structure-activity relationships. 2. A mixed approach, based on Hansch and Free-Wilson Analysis” (1976).
